The results in this text go back to patent publication US9376420B2 (YUHAN CORPORATION, priority 2012, dated 2016).

For this assay, the target named is T1, human LXRβ (Homo sapiens, UniProt P55055).
T1 construct: expressed in transfected cells; host or cells: HEK293 cells (ATCC CRL-1573), transient transfection with pFA-hLXRβ/GAL4 and pUAS
T1 sequence (P55055 222-460 limits assumed): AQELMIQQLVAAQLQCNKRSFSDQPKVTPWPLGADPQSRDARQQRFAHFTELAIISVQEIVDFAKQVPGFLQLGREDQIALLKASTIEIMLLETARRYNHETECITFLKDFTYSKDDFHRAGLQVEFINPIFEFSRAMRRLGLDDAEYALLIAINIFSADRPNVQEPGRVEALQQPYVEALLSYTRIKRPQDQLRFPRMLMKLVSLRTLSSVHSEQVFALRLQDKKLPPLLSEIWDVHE
Kind of assay: Assay for Transcriptional Activity of LXRβ (GAL4-hLXRβ LBD luciferase reporter, transient transfection). Type of assay: cell-based. The following applies: HEK293 cells transfected with pFA-hLXRβ/GAL4 and pUAS, 24 hours; for Emax: fold value in comparison with the control (DMSO-treated group); for EC50: increase of transcriptional activity of LXRβ, average of three independent tests. The gist of the method: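 HEK293 cells transiently co-transfected with GAL4-hLXRβ LBD and 5×GAL4-UAS luciferase reporter, treated 24 h at 37 °C with compounds over 9 points (0.01–50 μM, half-log). Luminescence read after lysis; EC50 from four-parameter fit, mean of three independent tests, with a known LXR agonist as positive control.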
Background: Reporter assays use an easily measured gene product as a stand-in for the process of interest.

Turning to `CSc1cccc(-c2ccnc(C3CC(C(F)(F)C(F)(F)F)=NN3c3ccc(F)cc3F)c2)c1` (stereo not shown) [Example 172, 1-(2,4-difluoro-phenyl)-5-[4-(3-methylsulfanyl-phenyl)-pyridin-2-yl]-3-pentafluoroethyl-4,5-dihydro-1H-pyrazole], the Emax worked out at 73 fold and the response was half-maximal at 1020 nM (EC50).
On the same counts, the results for `CSc1ccc(-c2ccnc(C3CC(C(F)(F)C(F)(F)F)=NN3c3ccc(F)cc3F)c2)cc1` (stereo not shown) [Example 173, 1-(2,4-difluoro-phenyl)-5-[4-(4-methylsulfanyl-phenyl)-pyridin-2-yl]-3-pentafluoroethyl-4,5-dihydro-1H-pyrazole] are 102 fold and 2490 nM.
For `CS(=O)(=O)c1ccc(-c2ccnc(C3CC(C(F)(F)C(F)(F)F)=NN3c3ccc(F)cc3F)c2)cc1` (stereo not shown) [Example 174, 1-(2,4-difluoro-phenyl)-5-[4-(4-methanesulfonyl-phenyl)-pyridin-2-yl]-3-pentafluoroethyl-4,5-dihydro-1H-pyrazole], the Emax is listed as 119 fold and the half-maximal effective concentration (EC50) (usually the concentration needed to bring the measured effect to its halfway point) was 543 nM.
On the same counts, the results for `CS(=O)(=O)c1cccc(-c2ccnc(C3CC(C(F)(F)C(F)(F)F)=NN3c3ccc(F)cc3F)c2)c1` (stereo not shown) [Example 177, 1-(2,4-difluoro-phenyl)-5-[4-(3-methanesulfonyl-phenyl)-pyridin-2-yl]-3-pentafluoroethyl-4,5-dihydro-1H-pyrazole] are 57 fold and 26 nM.
On the same counts, the results for `CS(=O)(=O)c1ccc(-c2ccnc(C3CC(C(F)(F)C(F)(F)F)=NN3c3ccc(F)cc3F)c2)cn1` (stereo not shown) [Example 178, 1-(2,4-difluoro-phenyl)-5-[4-(6-methanesulfonyl-pyridin-3-yl)-pyridin-2-yl]-3-pentafluoroethyl-4,5-dihydro-1H-pyrazole] are 82 fold and 543 nM.
The like results for `CS(=O)(=O)N1CC=C(c2ccnc(C3CC(C(F)(F)C(F)(F)F)=NN3c3ccc(F)cc3F)c2)CC1` (stereo not shown) [Example 180, 1-(2,4-difluoro-phenyl)-5-[4-(1-methanesulfonyl-1,2,3,6-tetrahydropyridin-4-yl)-pyridin-2-yl]-3-pentafluoroethyl-4,5-dihydro-1H-pyrazole] were, in that order, 118 fold and 513 nM.
Regarding `CS(=O)(=O)N1CCN(c2ccnc(C3CC(C(F)(F)C(F)(F)F)=NN3c3ccc(F)cc3F)c2)CC1` (stereo not shown) [Example 183, 1-(2,4-difluoro-phenyl)-5-[4-(4-methanesulfonyl-piperazin-1-yl)-pyridin-2-yl]-3-pentafluoroethyl-4,5-dihydro-1H-pyrazole], the Emax is 79 fold and a half-maximal effect (EC50) was put at 3280 nM.
The compound `O=S(=O)(C1CC1)N1CCN(c2ccnc(C3CC(C(F)(F)C(F)(F)F)=NN3c3ccc(F)cc3F)c2)CC1` (stereo not shown) [Example 184, 1-(2,4-difluoro-phenyl)-5-[4-(4-cyclopropanesulfonyl-piperazin-1-yl)-pyridin-2-yl]-3-pentafluoroethyl-4,5-dihydro-1H-pyrazole] gave an Emax of 81 fold and a 50% effective concentration (EC50) of 2840 nM.
Consider `CS(=O)(=O)c1cccc(-c2cc(C3CC(C(F)(F)C(F)(F)F)=NN3c3ccc(F)cc3F)ccn2)c1` (stereo not shown) [Example 188, 1-(2,4-difluoro-phenyl)-5-[2-(3-methanesulfonyl-phenyl)-pyridin-4-yl]-3-pentafluoroethyl-4,5-dihydro-1H-pyrazole], for which the Emax is recorded as 107 fold and the EC50 was determined as 304 nM.
On the same counts, the results for `CS(=O)(=O)c1ccc(-c2cc(C3CC(C(F)(F)C(F)(F)F)=NN3c3ccc(F)cc3F)ccn2)cn1` (stereo not shown) [Example 189, 1-(2,4-difluoro-phenyl)-5-[2-(6-methanesulfonyl-pyridin-3-yl)-pyridin-4-yl]-3-pentafluoroethyl-4,5-dihydro-1H-pyrazole] are 56 fold and 2720 nM.
The like results for `CS(=O)(=O)N1CC=C(c2cc(C3CC(C(F)(F)C(F)(F)F)=NN3c3ccc(F)cc3F)ccn2)CC1` (stereo not shown) [Example 191, 1-(2,4-difluoro-phenyl)-5-[2-(1-methanesulfonyl-1,2,3,6-tetrahydropyridin-4-yl)-pyridin-4-yl]-3-pentafluoroethyl-4,5-dihydro-1H-pyrazole] were, in that order, 50 fold and 6700 nM.
As to `CS(=O)(=O)N1CCN(c2cc(C3CC(C(F)(F)C(F)(F)F)=NN3c3ccc(F)cc3F)ccn2)CC1` (stereo not shown) [Example 194, 1-(2,4-difluoro-phenyl)-5-[2-(4-methanesulfonyl-piperazin-1-yl)-pyridin-4-yl]-3-pentafluoroethyl-4,5-dihydro-1H-pyrazole], the Emax is listed as 95 fold and the EC50 turned out to be 3630 nM.
In the case of `CS(=O)(=O)c1cccc(-c2cccc(N3N=C(C(F)(F)C(F)(F)F)CC3c3ccc(F)cc3F)c2)c1` (stereo not shown) [Example 206, 5-(2,4-difluoro-phenyl)-1-[3′-(methylsulfonyl)-biphenyl-3-yl]-3-pentafluoroethyl-4,5-dihydro-1H-pyrazole], the Emax was determined as 87 fold and a half-maximal effect (EC50) was put at 1400 nM.
On the same counts, the results for `CS(=O)(=O)c1cncc(-c2cccc(N3N=C(C(F)(F)C(F)(F)F)CC3c3ccc(F)cc3F)c2)c1` (stereo not shown) [Example 207, 5-(2,4-difluoro-phenyl)-1-[3-(5-methanesulfonyl-pyridin-3-yl)-phenyl]-3-pentafluoroethyl-4,5-dihydro-1H-pyrazole] are 16 fold and 6140 nM.
On the same counts, the results for `CS(=O)(=O)c1cccc(-c2cccc(N3N=C(C(F)(F)C(F)(F)F)CC3c3ccc(F)cc3F)c2)n1` (stereo not shown) [Example 208, 5-(2,4-difluoro-phenyl)-1-[3-(6-methanesulfonyl-pyridin-2-yl)-phenyl]-3-pentafluoroethyl-4,5-dihydro-1H-pyrazole] are 22 fold and 6070 nM.
As to `CN(C)S(=O)(=O)c1cccc(-c2cccc(N3N=C(C(F)(F)C(F)(F)F)CC3c3ccc(F)cc3F)c2)n1` (stereo not shown) [Example 209, 5-(2,4-difluoro-phenyl)-1-[3-(6-dimethylsulfamoyl-pyridin-2-yl)-phenyl]-3-pentafluoroethyl-4,5-dihydro-1H-pyrazole], the Emax is reported as 20 fold and the EC50 turned out to be 5110 nM.
`CN(CCO)S(=O)(=O)c1cccc(-c2cccc(N3N=C(C(F)(F)C(F)(F)F)CC3c3ccc(F)cc3F)c2)c1` (stereo not shown) [Example 210, 5-(2,4-difluoro-phenyl)-1-{3′-[(2-hydroxy-ethyl)-methyl-sulfamoyl]-biphenyl-3-yl}-3-pentafluoroethyl-4,5-dihydro-1H-pyrazole] displayed an Emax of 25 fold and an EC50 of 4470 nM.
The like results for `CN(CCCS(=O)(=O)c1cccc(-c2cccc(N3N=C(C(F)(F)C(F)(F)F)CC3c3ccc(F)cc3F)c2)c1)C(=O)OC(C)(C)C` (stereo not shown) [Example 211, 5-(2,4-difluoro-phenyl)-1-{3′-[3-(N-BOC-N-methyl-amino)-propane-1-sulfonyl]-biphenyl-3-yl}-3-pentafluoroethyl-4,5-dihydro-1H-pyrazole] were, in that order, 29 fold and 509 nM.
On the same counts, the results for `CNCCCS(=O)(=O)c1cccc(-c2cccc(N3N=C(C(F)(F)C(F)(F)F)CC3c3ccc(F)cc3F)c2)c1.Cl` (stereo not shown) [Example 212, 5-(2,4-difluoro-phenyl)-1-[3′-(3-methylamino-propane-1-sulfonyl)-biphenyl-3-yl]-3-pentafluoroethyl-4,5-dihydro-1H-pyrazole hydrochloride] are 9 fold and 1620 nM.
On the same counts, the results for `CC(C)(C)OC(=O)N1CC=C(c2cccc(C3CC(C(O)(C(F)(F)F)C(F)(F)F)=NN3c3ccccc3Cl)c2)CC1` (stereo not shown) [Example 229, 1-(2-chloro-phenyl)-5-[3-(1-BOC-1,2,3,6-tetrahydropyridin-4-yl)-phenyl]-3-[di-(trifluoromethyl)-hydroxy-methyl]-4,5-dihydro-1H-pyrazole] are 126 fold and 76 nM.
On to `O=C(O)C(F)(F)F.OC(C1=NN(c2ccccc2Cl)C(c2cccc(C3=CCNCC3)c2)C1)(C(F)(F)F)C(F)(F)F` (stereo not shown) [Example 230, 1-(2-chloro-phenyl)-5-[3-(1,2,3,6-tetrahydropyridin-4-yl)-phenyl]-3-[di-(trifluoromethyl)-hydroxy-methyl]-4,5-dihydro-1H-pyrazole trifluoroacetate], for which the Emax is reported as 137 fold and the concentration giving a half-maximal response (EC50) turned out to be 36 nM.
Take `CC(=O)N1CC=C(c2cccc(C3CC(C(O)(C(F)(F)F)C(F)(F)F)=NN3c3ccccc3Cl)c2)CC1` (stereo not shown) [Example 231, 5-[3-(1-acetyl-1,2,3,6-tetrahydropyridin-4-yl)-phenyl]-1-(2-chloro-phenyl)-3-[di-(trifluoromethyl)-hydroxy-methyl]-4,5-dihydro-1H-pyrazole]: the Emax was 107 fold and the EC50 worked out at 8 nM.
The like results for `O=C(CC1CCCC1)N1CC=C(c2cccc(C3CC(C(O)(C(F)(F)F)C(F)(F)F)=NN3c3ccccc3Cl)c2)CC1` (stereo not shown) [Example 232, 1-(2-chloro-phenyl)-5-{3-[1-(2-cyclopentyl-acetyl)-1,2,3,6-tetrahydropyridin-4-yl]-phenyl}-3-[di-(trifluoromethyl)-hydroxy-methyl]-4,5-dihydro-1H-pyrazole] were, in that order, 77 fold and 70 nM.
